The values below are quoted from earlier work in patent US11925657B2, “Formulations and methods for treating conditions of the eye” (Sight Sciences, Inc., priority 2020, dated 2024).

For data set [1] the following is noted: antibiotic levels of azithromycin (1%).
The conditions of data set [2]: lower concentrations, e.g. 0.1% and 0.35%.

With `CC[C@H]1OC(=O)[C@H](C)[C@@H](O[C@H]2C[C@@](C)(OC)[C@@H](O)[C@H](C)O2)[C@H](C)[C@@H](O[C@@H]2O[C@H](C)C[C@H](N(C)C)[C@H]2O)[C@](C)(O)C[C@@H](C)CN(C)[C@H](C)[C@@H](O)[C@]1(C)O` [azithromycin], in data set [1], the “phase transition temperature of meibum lipids and lipid ordering” value is given as “can improve”.

For ivermectin, the “efficacy toward intended rosacea treatment” value in data set [2] was “lose efficacy”.
